The experiment has as its system awake Wistar rats with activated renin-angiotensin-aldosterone system. As to the kind of experiment: In vivo assay for detecting natriuretic activity in conscious rats with activated RAAS. To be noted: 8 hours after oral administration, metabolic cages, 3 mg/kg Finerenone, 0.3 mg/kg Pecavaptan, or both combined, mean ± SD, n = 7-8; for Urinary Na+/K+ concentration ratio: calculated from urinary sodium and potassium concentrations. Also noted: Volume urine / body weight: unit not given here. The text has this: Wistar rats (ca. 250-500 g body weight) were kept with free access to feed (Altromin) and drinking water. […] This sodium-reduced feed causes an activation of the RAAS in the animals during the 3 days run-in phase and therefore mimics a neuroendocrine activation which is characteristic for cardiorenal diseases. During the test, the animals were housed singly in metabolic cages suitable for rats of this weight class (Tecniplast Deutschland GmbH, D-82383 Hohenpeissenberg) with free access to reduced-salt feed and drinking water for up to 24 hours. At the start of the test, the substance to be tested was administered by means of gavage in a volume of 2-3 ml/kg of body weight of a suitable solvent ('Adalat Placebo': 85.8% PEG400, 5.3% glycerol, 8.9% water). Control animals received only solvent ('Adalat Placebo' or solvent in table 2 below). Controls and substance tests were carried out in parallel on the same day. Control groups and substance-dose groups each consisted of 7 to 8 animals. During the test, the urine excreted by the animals was continuously collected in a receiver on the base of the cage. The urine volume per collection time was determined separately for each animal, and the concentration of the sodium and potassium ions excreted in the urine was measured by standard methods of flame photometry by a clinical-chemical analyzer system (ADVIA 2400, Siemens). The sodium/potassium ratio was calculated on the basis of the individual urinary sodium and potassium concentrations. The measurement intervals were typically the period up to 8 hours after the start of the test (day interval) or up to 24 hours after the start of the test (day and night interval).
In this comparison, four different administrations were performed: Group A received the solvent (Adalat Placebo) only. This group serves as control group. Group B received finerenone only. It serves to detect the effect of the monotherapy with finerenone. Group C received pecavaptan only. It serves to detect the effect of the monotherapy with pecavaptan. Group D received finerenone and pecavaptan in combination. It serves to detect the effect of the combined therapy with finerenone and pecavaptan (combination according to the invention). After the treatment, the urinary volume, urinary sodium and potassium concentrations were measured. Based on this measurement the sodium/potassium ratio was calculated. Table 2: Measured data (mean values ± standard deviation [SD]) of urinary volume, urinary potassium concentration (K+), urinary sodium concentration (Na+), and the resulting urinary sodium / potassium concentration ratio from awake Wistar rats with activated renin-angiotensin-aldosterone system (n = 7-8 animals per group), which were examined according to the 'assessment of the physiological efficacy' for 8 hours after oral administration of the substances in metabolic cages.

Molecules are shown by their SMILES.

`CCOc1ncc(C)c2c1[C@H](c1ccc(C#N)cc1OC)C(C(N)=O)=C(C)N2` [Finerenone, (S)-4-(4-cyano-2-methoxyphenyl)-5-ethoxy-2,8-dimethyl-1,4-dihydro-1,6-naphthyridin-3-carboxamide]: the “Urinary K+ concentration” value was found to be 0.84 ± 0.04 mmol, the “Urinary Na+ concentration” value amounted to 0.24 ± 0.03 mmol, the “Volume urine / body weight” value amounted to 12.069 ±0.563 and the “Urinary Na+/K+ concentration ratio” value is recorded as 0.283 ±0.031. Besides, under “listed as finerenone”, the “Urinary Na+/K+ concentration ratio” value is on record as “increase”, the “Urinary K+ concentration” value was “no influence”, the “Urinary Na+ concentration” value is “increase” and the “Volume urine / body weight” value was “no influence”.
Consider `C[C@H](O)c1nc(Cn2nc(-c3ccc(Cl)cc3)n(C[C@H](O)C(F)(F)F)c2=O)nn1-c1cccc(Cl)c1` [Pecavaptan, 5-(4-chlorophenyl)-2-({1-(3-chlorophenyl)-5-[(1S)-1-hydroxyethyl]-1H-1,2,4-triazol-3-yl}methyl)-4-[(2S)-3,3,3-trifluoro-2-hydroxypropyl]-2,4-dihydro-3H-1,2,4-triazol-3-one], for which the “Urinary K+ concentration” value was found to be 1.35 ± 0.08 mmol, the “Urinary Na+ concentration” value is 0.72 ± 0.11 mmol, the “Volume urine / body weight” value stood at 80.070 ±9.661 and the “Urinary Na+/K+ concentration ratio” value was 0.534 ±0.074. Under “listed as pecavaptan”, the “Urinary Na+/K+ concentration ratio” value is on record as “increased”, the “Urinary K+ concentration” value was “increases”, the “Urinary Na+ concentration” value is recorded as “increases” and the “Volume urine / body weight” value is “increases”.

The values are drawn from patent publication EP3900722A1, “COMBINATION OF FINERENONE AND PECAVAPTAN FOR THE TREATMENT AND/OR PREVENTION OF CARDIOVASCULAR AND/OR RENAL DISEASES” (Bayer AG, priority 2020, dated 2021).
